Like-named read-outs stand apart in the source and are kept apart here. Numbered stars: 1 amine (or outer) side, 2 acyl side, 3 side chain; on linkers, the order of the positions; unused ones are H or OH. Bridge positions count the residues as written; N and C are the ends. Side chains are listed from the residue outwards. Peptide text beside a SMILES is read from it. * marks the point of attachment. C20 diacid = O=C(O)CCCCCCCCCCCCCCCCCCC(=O)*; γGlu = O=C(O)[C@H](CCC(=O)[*:2])N[*:1]
Columns and labels:
[1] = target: T1, human calcitonin receptor (Homo sapiens, UniProt P30988); assay: Assay (II)a functional assay, human calcitonin receptor (CRE luciferase, BHK cells);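 note: luminescence from a CRE-driven luciferase reporter, read by single photon counting after cells were exposed to test samples for 3 h at 37 °C under 5% CO2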; assay type: cell-based; conditions: read-out: hCTR funct. EC50
T1 construct: expressed in transfected cells
T1 sequence (P30988 25-474): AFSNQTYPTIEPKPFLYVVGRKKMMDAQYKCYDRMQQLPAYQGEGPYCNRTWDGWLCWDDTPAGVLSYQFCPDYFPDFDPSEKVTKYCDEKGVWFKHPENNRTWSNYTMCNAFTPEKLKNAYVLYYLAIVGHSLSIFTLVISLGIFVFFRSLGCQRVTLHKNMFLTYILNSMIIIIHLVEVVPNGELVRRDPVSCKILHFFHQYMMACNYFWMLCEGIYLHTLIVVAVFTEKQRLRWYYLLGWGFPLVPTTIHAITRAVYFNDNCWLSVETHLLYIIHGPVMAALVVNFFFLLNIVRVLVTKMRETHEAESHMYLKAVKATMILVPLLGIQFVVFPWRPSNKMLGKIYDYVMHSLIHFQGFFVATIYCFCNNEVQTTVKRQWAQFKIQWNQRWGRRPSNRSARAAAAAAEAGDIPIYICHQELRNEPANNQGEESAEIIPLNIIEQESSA

[2] = target: T1, human calcitonin receptor; assay: Assay (VII) binding to the human calcitonin receptor (SPA, 125I-Calcitonin); conditions: read-out: hCTR bind IC50;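 note: cell membranes coupled to SPA beads, competitive displacement read by scintillation counting, IC50 derived from a one-site competition fit as a measure of receptor affinity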
[3] = target: T2, human amylin receptor (amylin 3(a) receptor: human calcitonin receptor + RAMP-3) (Homo sapiens, UniProt O60896+P30988); assay: Assay (II)a functional assay, human amylin receptor (CRE luciferase, BHK cells); assay type: cell-based; conditions: for EC50: human amylin receptor functional, read-out: hAmylin-R funct. EC50
T2 construct: expressed in transfected cells
T2 sequence (P30988 25-474): T1 sequence (P30988 25-474)
T2 sequence (O60896 24-148 partner): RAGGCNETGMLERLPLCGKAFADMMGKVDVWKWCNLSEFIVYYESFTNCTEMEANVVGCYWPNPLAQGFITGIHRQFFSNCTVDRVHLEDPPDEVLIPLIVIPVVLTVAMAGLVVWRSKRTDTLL

[4] = target: T3, human amylin receptor (Homo sapiens, UniProt O60896+P30988); assay: Assay (V) binding to the human amylin receptor (SPA, 125I-rat amylin); conditions: for IC50: human amylin receptor membranes, SPA, read-out: hAmylin-R bind IC50
T3 construct: expressed in transfected cells
T3 sequence (P30988 25-474): T1 sequence (P30988 25-474)
T3 sequence (O60896 24-148 partner): T2 sequence (O60896 24-148 partner)
Description: The binding assay was performed using scintillation proximity assay (SPA) beads (RPNQ0001) from PerkinElmer and cell membranes from the Amylin 3(a)/CRE-luc cells (as described in Assay (II)) were used. Membranes were prepared in the following way; the cells were rinsed with PBS and incubated with Versene for approximately 5 min before harvesting. The cells were flushed with PBS and the cell-suspension was centrifuged for 5 min at 1000 rpm. […] The resulting pellet was resuspended in buffer 2 and protein concentration was measured (BCA protein Assay, Pierce). The homogenate was kept cold during the whole procedure. The membranes were kept at −80° C. until use. The assay was performed in a 384 well Optiplate (PerkinElmer) in a total volume of 40 ul. Membranes were mixed with SPA beads. Final concentration of membranes 35 ng/μL final and SPA beads was 0.05 mg/well. Test-compounds were dissolved in DMSO and further diluted in assay buffer (50 mM Hepes, pH 7.4, 1 mM CaCl2, 5 mM MgCl2, 0.1% OA and 0.02% Tween20). […] Samples were analyzed on TopCounter™ (Packard). The IC50 was calculated using (one site binding competition analysis) GraphPad Prism5 as a measure of receptor affinity.

[5] = Table 6, human functional selectivity (hCTR EC50 / hAmylin-R EC50)
[6] = Table 6a, human functional selectivity (hCTR EC50 / hAmylin-R EC50), at least 5
[7] = Table 6i, hCTR funct. EC50 / hAmylin-R funct. EC50
[8] = human binding ratio, included for comparison

EC50 [1] [nM] | IC50 [2] [nM] | Ratio hCT/hAmylin funct. [3, 5] | Ratio hCT/hAmylin funct. [3, 6] | Ratio hCT/hAmylin funct. [3, 7] | EC50 ([3]; Table 6i) [nM] | Ratio hCT/hAmylin funct. ([3]; Table 6j, hCTR funct. EC50 / hAmylin-R funct. EC50) | Ratio hCT/hAmylin funct. ([3]; Table 6k, hCTR funct. EC50 / hAmylin-R funct. EC50) | IC50 [4] [nM] | EC50 ([3]; Table 6j) [nM] | Ratio hCT/hAmylin binding [4, 8] | Ratio hCT/hAmylin binding ([4]; Table 7b, human calcitonin receptor binding IC50 divided by human amylin receptor binding IC50) | Ratio hCT/hAmylin binding ([4]; Table 7c, human calcitonin receptor binding IC50 divided by human amylin receptor binding IC50) | SMILES
2.21 | 17.1 | 6.1 | 6.1 | 6.1 | 0.363 | 6.1 | 6.1 | 0.894 | – | – | – | – | CC[C@H](C)[C@H](NC(=O)[C@H](C)NC(=O)CNC(=O)[C@H](Cc1ccccc1)NC(=O)[C@H](CC(N)=O)NC(=O)[C@@H]1CCCN1C(=O)[C@H](CO)NC(=O)[C@H](CO)NC(=O)[C@H](Cc1c[nH]cn1)NC(=O)[C@H](CCCNC(=N)N)NC(=O)[C@H](CC(C)C)NC(=O)[C@H](Cc1ccccc1)NC(=O)[C@H](CCC(=O)O)NC(=O)[C@H](C)NC(=O)[C@H](CC(C)C)NC(=O)[C@H](CCCNC(=N)N)NC(=O)[C@H](CCC(N)=O)NC(=O)[C@@H](NC(=O)[C@H](C)NC(=O)[C@@H]1CSSC[C@H](NC(=O)[C@H](CCCCN)NC(=O)CC[C@H](NC(=O)CCCCCCCCCCCCCCCCCCC(=O)O)C(=O)O)C(=O)N[C@@H](CC(N)=O)C(=O)N[C@@H]([C@@H](C)O)C(=O)N[C@@H](C)C(=O)N[C@@H]([C@@H](C)O)C(=O)N1)[C@@H](C)O)C(=O)N1CCC[C@H]1C(=O)N[C@@H](CO)C(=O)N[C@@H](CO)C(=O)N[C@H](C(=O)N[C@@H](CC(N)=O)C(=O)N[C@H](C(=O)NCC(=O)N[C@@H](CO)C(=O)N[C@@H](CCCNC(=N)N)C(=O)N[C@H](C(=O)N[C@@H](Cc1ccc(O)cc1)C(N)=O)[C@@H](C)O)C(C)C)[C@@H](C)O [Example 16] ({C20 diacid-γGlu}-KCNTATCATQRLAEFLRHSSPNFGAIPSSTNVGSRTY-NH2; disulfide 2-7)
– | 2.57 | – | – | – | – | – | – | 0.061 | 0.033 | – | – | – | CC[C@H](C)[C@H](NC(=O)[C@H](C)NC(=O)CNC(=O)[C@H](Cc1ccccc1)NC(=O)[C@H](CC(N)=O)NC(=O)[C@@H]1CCCN1C(=O)[C@H](CO)NC(=O)[C@H](CO)NC(=O)[C@H](Cc1c[nH]cn1)NC(=O)[C@H](CCCNC(=N)N)NC(=O)[C@H](CC(C)C)NC(=O)[C@H](Cc1ccccc1)NC(=O)[C@H](Cc1c[nH]cn1)NC(=O)[C@H](C)NC(=O)[C@H](CC(C)C)NC(=O)[C@H](CCCNC(=N)N)NC(=O)[C@H](CCC(N)=O)NC(=O)[C@@H](NC(=O)[C@H](C)NC(=O)[C@@H]1CSSC[C@H](NC(=O)[C@@H](N)CCCCNC(=O)COCCOCCNC(=O)CCCCCCCCCCCCCCCCCCC(=O)O)C(=O)N[C@@H](CC(N)=O)C(=O)N[C@@H]([C@@H](C)O)C(=O)N[C@@H](C)C(=O)N[C@@H]([C@@H](C)O)C(=O)N1)[C@@H](C)O)C(=O)N1CCC[C@H]1C(=O)N[C@@H](CO)C(=O)N[C@@H](CO)C(=O)N[C@H](C(=O)N[C@@H](CC(N)=O)C(=O)N[C@H](C(=O)NCC(=O)N[C@@H](CO)C(=O)N[C@@H](CC(N)=O)C(=O)N[C@H](C(=O)N[C@@H](Cc1ccc(O)cc1)C(N)=O)[C@@H](C)O)C(C)C)[C@@H](C)O [Example 90]
– | – | 4.0 | – | – | – | – | – | – | – | 2.3 | – | – | CC[C@H](C)[C@H](NC(=O)[C@H](C)NC(=O)CNC(=O)[C@H](Cc1ccccc1)NC(=O)[C@H](CC(N)=O)NC(=O)[C@@H]1CCCN1C(=O)[C@H](CO)NC(=O)[C@H](CO)NC(=O)[C@H](Cc1c[nH]cn1)NC(=O)[C@H](CCCNC(=N)N)NC(=O)[C@H](CC(C)C)NC(=O)[C@H](Cc1ccccc1)NC(=O)[C@H](CCC(=O)O)NC(=O)[C@H](C)NC(=O)[C@H](CC(C)C)NC(=O)[C@H](CCCNC(=N)N)NC(=O)[C@H](CCC(N)=O)NC(=O)[C@@H](NC(=O)[C@H](C)NC(=O)[C@@H]1CSSC[C@H](NC(=O)[C@H](CCCCN)NC(=O)CC[C@H](NC(=O)CCCCCCCCCCCCCCCCCCC(=O)O)C(=O)O)C(=O)N[C@@H](CC(N)=O)C(=O)N[C@@H]([C@@H](C)O)C(=O)N[C@@H](C)C(=O)N[C@@H]([C@@H](C)O)C(=O)N1)[C@@H](C)O)C(=O)N1CCC[C@H]1C(=O)N[C@@H](CO)C(=O)N1CCC[C@H]1C(=O)N[C@H](C(=O)N[C@@H](CC(N)=O)C(=O)N[C@H](C(=O)NCC(=O)N[C@@H](CO)C(=O)N[C@@H](CC(N)=O)C(=O)N[C@H](C(=O)N[C@@H](Cc1ccc(O)cc1)C(N)=O)[C@@H](C)O)C(C)C)[C@@H](C)O [Example 37] ({C20 diacid-γGlu}-KCNTATCATQRLAEFLRHSSPNFGAIPSPTNVGSNTY-NH2; disulfide 2-7)
– | 19.5 | 6.7 | 6.7 | – | – | – | – | 1.13 | – | – | – | – | CC(C)C[C@H](NC(=O)[C@H](CCCNC(=N)N)NC(=O)[C@H](CCC(N)=O)NC(=O)[C@@H](NC(=O)[C@H](C)NC(=O)[C@@H]1CSSC[C@H](NC(=O)[C@@H](N)CCCCNC(=O)CC[C@H](NC(=O)CC[C@H](NC(=O)CCCCCCCCCCCCCCCCCCC(=O)O)C(=O)O)C(=O)O)C(=O)N[C@@H](CC(N)=O)C(=O)N[C@@H]([C@@H](C)O)C(=O)N[C@@H](C)C(=O)N[C@@H]([C@@H](C)O)C(=O)N1)[C@@H](C)O)C(=O)N[C@@H](C)C(=O)N[C@@H](CC(=O)O)C(=O)N[C@@H](Cc1ccccc1)C(=O)N[C@@H](CC(C)C)C(=O)N[C@@H](CCCNC(=N)N)C(=O)N[C@@H](Cc1c[nH]cn1)C(=O)N[C@@H](CO)C(=O)N[C@@H](CO)C(=O)N[C@@H](CC(N)=O)C(=O)N1CCC[C@H]1C(=O)N[C@@H](Cc1ccccc1)C(=O)NCC(=O)N[C@@H](C)C(=O)N1CCC[C@H]1C(=O)N[C@@H](CC(C)C)C(=O)N[C@@H](CO)C(=O)N[C@@H](CO)C(=O)N[C@H](C(=O)N[C@@H](CC(N)=O)C(=O)N[C@H](C(=O)NCC(=O)N[C@@H](CO)C(=O)N[C@@H](CC(=O)O)C(=O)N[C@H](C(=O)N[C@@H](Cc1ccc(O)cc1)C(N)=O)[C@@H](C)O)C(C)C)[C@@H](C)O [Example 3] (H-K([γGlu-γGlu-C20 diacid])CNTATCATQRLADFLRHSSNPFGAPLSSTNVGSDTY-NH2; disulfide 2-7)
– | – | 5.7 | 5.7 | 5.7 | – | – | – | – | – | 20.0 | 20.0 | 20.0 | CC[C@H](C)[C@H](NC(=O)[C@@H]1CCCN1C(=O)CNC(=O)[C@H](Cc1ccccc1)NC(=O)[C@H](CC(N)=O)NC(=O)[C@@H]1CCCN1C(=O)[C@H](CO)NC(=O)[C@H](CO)NC(=O)[C@H](Cc1c[nH]cn1)NC(=O)[C@H](CCCNC(=N)N)NC(=O)[C@H](CC(C)C)NC(=O)[C@H](Cc1ccccc1)NC(=O)[C@H](CCC(=O)O)NC(=O)[C@H](C)NC(=O)[C@H](CC(C)C)NC(=O)[C@H](CCCNC(=N)N)NC(=O)[C@H](CCC(N)=O)NC(=O)[C@@H](NC(=O)[C@H](C)NC(=O)[C@@H]1CSSC[C@H](NC(=O)[C@H](CCCCN)NC(=O)CC[C@H](NC(=O)CCCCCCCCCCCCCCCCCCC(=O)O)C(=O)O)C(=O)N[C@@H](CC(N)=O)C(=O)N[C@@H]([C@@H](C)O)C(=O)N[C@@H](C)C(=O)N[C@@H]([C@@H](C)O)C(=O)N1)[C@@H](C)O)C(=O)N[C@@H](CC(C)C)C(=O)N1CCC[C@H]1C(=O)N1CCC[C@H]1C(=O)N[C@H](C(=O)N[C@@H](CC(N)=O)C(=O)N[C@H](C(=O)NCC(=O)N[C@@H](CO)C(=O)N[C@@H](CC(N)=O)C(=O)N[C@H](C(=O)N[C@@H](Cc1ccc(O)cc1)C(N)=O)[C@@H](C)O)C(C)C)[C@@H](C)O [Example 6] ({C20 diacid-γGlu}-KCNTATCATQRLAEFLRHSSPNFGPILPPTNVGSNTY-NH2; disulfide 2-7)
